Experimental data reported in ChEMBL document CHEMBL3826887, “Functional foldamers that target bacterial membranes: The effect of charge, amphiphilicity and conformation” (2016).
Values after ≈ are worked out from the molar mass of the structure shown.

What was measured:
Type in all cases: functional
Lipid bilayer [1] = assay: Induction of membrane lysis in Staphylococcus aureus UL12 lipid vesicles assessed as calcein release at 93.73 uM by spectrofluorometric analysis
Lipid bilayer [2] = assay: Induction of membrane lysis in Staphylococcus aureus UL12 lipid vesicles assessed as calcein release at 187.5 uM by spectrofluorometric analysis
Lipid bilayer [3] = assay: Induction of membrane lysis in Staphylococcus aureus UL12 lipid vesicles assessed as calcein release at 375 uM by spectrofluorometric analysis
Lipid bilayer [4] = assay: Induction of membrane lysis in Staphylococcus aureus UL12 lipid vesicles assessed as calcein release at 750 uM by spectrofluorometric analysis
Lipid bilayer [5] = assay: Induction of membrane lysis in Staphylococcus aureus UL12 lipid vesicles assessed as calcein release at 1500 uM by spectrofluorometric analysis
Lipid bilayer [6] = assay: Induction of membrane lysis in Staphylococcus aureus UL12 lipid vesicles assessed as calcein release at 3000 uM by spectrofluorometric analysis
Lipid bilayer [7] = assay: Induction of membrane lysis in Escherichia coli W3110 lipid vesicles assessed as calcein release at 93.73 uM by spectrofluorometric analysis
Lipid bilayer [8] = assay: Induction of membrane lysis in Escherichia coli W3110 lipid vesicles assessed as calcein release at 187.5 uM by spectrofluorometric analysis
Lipid bilayer [9] = assay: Induction of membrane lysis in Escherichia coli W3110 lipid vesicles assessed as calcein release at 375 uM by spectrofluorometric analysis
Lipid bilayer [10] = assay: Induction of membrane lysis in Escherichia coli W3110 lipid vesicles assessed as calcein release at 750 uM by spectrofluorometric analysis
Lipid bilayer [11] = assay: Induction of membrane lysis in Escherichia coli W3110 lipid vesicles assessed as calcein release at 1500 uM by spectrofluorometric analysis
Lipid bilayer [12] = assay: Induction of membrane lysis in Escherichia coli W3110 lipid vesicles assessed as calcein release at 3000 uM by spectrofluorometric analysis
Staphylococcus aureus [13] = assay: Antibacterial activity against Staphylococcus aureus UL12
Escherichia coli [14] = assay: Antibacterial activity against Escherichia coli W3110
Staphylococcus aureus [15] = assay: Membrane permeabilisation in Staphylococcus aureus UL12 assessed as NPN uptake at 2mM incubated for 1 hr by spectrofluorometric analysis
Escherichia coli [16] = assay: Membrane permeabilisation in Escherichia coli W3110 assessed as NPN uptake at 2mM incubated for 1 hr by spectrofluorometric analysis
Staphylococcus aureus [17] = assay: Membrane permeabilisation in Staphylococcus aureus UL12 assessed as NPN uptake at 2mM incubated overnight by spectrofluorometric analysis
Escherichia coli [18] = assay: Membrane permeabilisation in Escherichia coli W3110 assessed as NPN uptake at 2mM incubated overnight by spectrofluorometric analysis

## NCC(=O)Nc1cccc(NC(=O)Nc2ccccc2)c1
Lipid bilayer [1]
  Activity: 6.91%
Lipid bilayer [2]
  Activity: 11.2%
Lipid bilayer [3]
  Activity: 17.8%
Lipid bilayer [4]
  Activity: 27.2%
Lipid bilayer [5]
  Activity: 31.2%
Lipid bilayer [6]
  Activity: 44.1%
Lipid bilayer [7]
  Activity: 1.1%
Lipid bilayer [8]
  Activity: 6.06%
Lipid bilayer [9]
  Activity: 9.17%
Lipid bilayer [10]
  Activity: 16.6%
Lipid bilayer [11]
  Activity: 23.5%
Lipid bilayer [12]
  Activity: 29.2%
Staphylococcus aureus [13]
  MIC: 1500 µM (≈ 426 µg/mL)
Escherichia coli [14]
  MIC: 2000 µM (≈ 569 µg/mL)
Staphylococcus aureus [15]
  Activity: 69.56%
Escherichia coli [16]
  Activity: 47.09%
Staphylococcus aureus [17]
  Activity: 69.56%
Escherichia coli [18]
  Activity: 50.93%

## CN(C(=O)N(C)c1cccc(NC(=O)c2ccncc2)c1)c1ccccc1
Lipid bilayer [1]
  Activity: 40%
Lipid bilayer [2]
  Activity: 48.2%
Lipid bilayer [3]
  Activity: 49.6%
Lipid bilayer [4]
  Activity: 51.5%
Lipid bilayer [5]
  Activity: 53.1%
Lipid bilayer [6]
  Activity: 54.6%
Lipid bilayer [7]
  Activity: 24.1%
Lipid bilayer [8]
  Activity: 24.8%
Lipid bilayer [9]
  Activity: 26.3%
Lipid bilayer [10]
  Activity: 29.1%
Lipid bilayer [11]
  Activity: 33.6%
Lipid bilayer [12]
  Activity: 35.3%
Staphylococcus aureus [13]
  MIC: 1000 µM (≈ 360 µg/mL)
Escherichia coli [14]
  MIC: 2000 µM (≈ 721 µg/mL)
Staphylococcus aureus [15]
  Activity: 50.59%
Escherichia coli [16]
  Activity: 49.57%
Staphylococcus aureus [17]
  Activity: 57.33%
Escherichia coli [18]
  Activity: 52.34%

## CN(C(=O)N(C)c1cccc(N)c1)c1ccccc1
Lipid bilayer [1]
  Activity: 4.45%
Lipid bilayer [2]
  Activity: 7.13%
Lipid bilayer [3]
  Activity: 12%
Lipid bilayer [4]
  Activity: 15.3%
Lipid bilayer [5]
  Activity: 21.2%
Lipid bilayer [6]
  Activity: 27%
Lipid bilayer [7]
  Activity: 2.3%
Lipid bilayer [8]
  Activity: 5.72%
Lipid bilayer [9]
  Activity: 6.75%
Lipid bilayer [10]
  Activity: 7.44%
Lipid bilayer [11]
  Activity: 8.03%
Lipid bilayer [12]
  Activity: 9.65%
Staphylococcus aureus [13]
  MIC: 2000 µM (≈ 511 µg/mL)
Escherichia coli [14]
  MIC: > 3000 µM
Staphylococcus aureus [15]
  Activity: 46.26%
Escherichia coli [16]
  Activity: 40.18%
Staphylococcus aureus [17]
  Activity: 53.57%
Escherichia coli [18]
  Activity: 48.79%

## CN(C(=O)N(C)c1cccc(NC(=O)CN)c1)c1ccccc1
Lipid bilayer [1]
  Activity: 4.45%
Lipid bilayer [2]
  Activity: 10%
Lipid bilayer [3]
  Activity: 11.8%
Lipid bilayer [4]
  Activity: 13.2%
Lipid bilayer [5]
  Activity: 15.3%
Lipid bilayer [6]
  Activity: 17.8%
Lipid bilayer [7]
  Activity: 8.45%
Lipid bilayer [8]
  Activity: 27.2%
Lipid bilayer [9]
  Activity: 29.3%
Lipid bilayer [10]
  Activity: 30%
Lipid bilayer [11]
  Activity: 31%
Lipid bilayer [12]
  Activity: 35.5%
Staphylococcus aureus [13]
  MIC: 2500 µM (≈ 781 µg/mL)
Escherichia coli [14]
  MIC: 2000 µM (≈ 625 µg/mL)
Staphylococcus aureus [15]
  Activity: 40.6%
Escherichia coli [16]
  Activity: 42.47%
Staphylococcus aureus [17]
  Activity: 36.81%
Escherichia coli [18]
  Activity: 52.87%

## CN(C(=O)N(C)c1ccccc1)c1ccccc1
Lipid bilayer [1]
  Activity: 2.59%
Lipid bilayer [2]
  Activity: 5.71%
Lipid bilayer [3]
  Activity: 12.8%
Lipid bilayer [4]
  Activity: 14.2%
Lipid bilayer [5]
  Activity: 15.1%
Lipid bilayer [6]
  Activity: 24.1%
Lipid bilayer [7]
  Activity: 0.82%
Lipid bilayer [8]
  Activity: 2.05%
Lipid bilayer [9]
  Activity: 4.25%
Lipid bilayer [10]
  Activity: 6.44%
Lipid bilayer [11]
  Activity: 7.28%
Lipid bilayer [12]
  Activity: 9.02%
Staphylococcus aureus [13]
  MIC: 2500 µM (≈ 601 µg/mL)
Escherichia coli [14]
  MIC: > 3000 µM
Staphylococcus aureus [15]
  Activity: 43.82%
Escherichia coli [16]
  Activity: 40.75%
Staphylococcus aureus [17]
  Activity: 44.34%
Escherichia coli [18]
  Activity: 38.67%

## O=C(Nc1ccccc1)Nc1ccccc1 [DIPHENYLUREA]
Lipid bilayer [1]
  Activity: 7.18%
Lipid bilayer [2]
  Activity: 9.2%
Lipid bilayer [3]
  Activity: 13.8%
Lipid bilayer [4]
  Activity: 15.3%
Lipid bilayer [5]
  Activity: 18.3%
Lipid bilayer [6]
  Activity: 25.5%
Lipid bilayer [7]
  Activity: 3.17%
Lipid bilayer [8]
  Activity: 6.27%
Lipid bilayer [9]
  Activity: 6.47%
Lipid bilayer [10]
  Activity: 8.53%
Lipid bilayer [11]
  Activity: 12%
Lipid bilayer [12]
  Activity: 14.8%
Staphylococcus aureus [13]
  MIC: 2000 µM (≈ 425 µg/mL)
Escherichia coli [14]
  MIC: > 3000 µM
Staphylococcus aureus [15]
  Activity: 46.01%
Escherichia coli [16]
  Activity: 45.29%
Staphylococcus aureus [17]
  Activity: 49.4%
Escherichia coli [18]
  Activity: 30.02%

## Nc1cccc(NC(=O)Nc2ccccc2)c1
Lipid bilayer [1]
  Activity: 4.58%
Lipid bilayer [2]
  Activity: 8.34%
Lipid bilayer [3]
  Activity: 10.1%
Lipid bilayer [4]
  Activity: 12.7%
Lipid bilayer [5]
  Activity: 13.8%
Lipid bilayer [6]
  Activity: 15.5%
Lipid bilayer [7]
  Activity: 0.15%
Lipid bilayer [8]
  Activity: 0.95%
Lipid bilayer [9]
  Activity: 1.24%
Lipid bilayer [10]
  Activity: 1.73%
Lipid bilayer [11]
  Activity: 1.78%
Lipid bilayer [12]
  Activity: 2.17%
Staphylococcus aureus [13]
  MIC: 2500 µM (≈ 568 µg/mL)
Escherichia coli [14]
  MIC: > 3000 µM
Staphylococcus aureus [15]
  Activity: 38.91%
Escherichia coli [16]
  Activity: 33.93%
Staphylococcus aureus [17]
  Activity: 19.29%
Escherichia coli [18]
  Activity: 16.34%
